Source: US6120762A, “C-terminal peptides of interferon γ” (priority 1998, dated 2000)
Several values for one entry are separate records, joined by “and”; a condition that tells them apart may be missing. Equal values may be shown once.

System: VSV
Type: cell-based, Vesicular stomatitis virus

Molecule | Effect on virus yield | Virus yield
Human IFNγ | had no effect | 
muIFNγ (protein, UniProt P01580 23-155, looked up) Interferon gamma: HGTVIESLESLNNYFNSSGIDVEEKSLFLDIWRNWQKDGDMKILQSQIISFYLRLFEVLKDNQAISNNISVIESHLITTFFSNSKAKKDAFMSIAKFEVNNPQVQRQAFNELIRVVHQLLPESSLRKRKRSRC |  | 1.2 × 10^8 and 1.6 × 10^10
